The term IC50 denotes the midpoint of a concentration-inhibition curve.

For the experiment, the target named is Xanthine dehydrogenase/oxidase (Bos taurus, UniProt P80457). The experiment can be described thus: Inhibition of bovine XOD assessed as inhibition of uric acid formation using xanthine as substrate preincubated with enzyme for 5 mins followed by substrate addition and measured for 30 mins by microplate reader analysis.
Xanthine dehydrogenase/oxidase, sequence (P80457 whole entry): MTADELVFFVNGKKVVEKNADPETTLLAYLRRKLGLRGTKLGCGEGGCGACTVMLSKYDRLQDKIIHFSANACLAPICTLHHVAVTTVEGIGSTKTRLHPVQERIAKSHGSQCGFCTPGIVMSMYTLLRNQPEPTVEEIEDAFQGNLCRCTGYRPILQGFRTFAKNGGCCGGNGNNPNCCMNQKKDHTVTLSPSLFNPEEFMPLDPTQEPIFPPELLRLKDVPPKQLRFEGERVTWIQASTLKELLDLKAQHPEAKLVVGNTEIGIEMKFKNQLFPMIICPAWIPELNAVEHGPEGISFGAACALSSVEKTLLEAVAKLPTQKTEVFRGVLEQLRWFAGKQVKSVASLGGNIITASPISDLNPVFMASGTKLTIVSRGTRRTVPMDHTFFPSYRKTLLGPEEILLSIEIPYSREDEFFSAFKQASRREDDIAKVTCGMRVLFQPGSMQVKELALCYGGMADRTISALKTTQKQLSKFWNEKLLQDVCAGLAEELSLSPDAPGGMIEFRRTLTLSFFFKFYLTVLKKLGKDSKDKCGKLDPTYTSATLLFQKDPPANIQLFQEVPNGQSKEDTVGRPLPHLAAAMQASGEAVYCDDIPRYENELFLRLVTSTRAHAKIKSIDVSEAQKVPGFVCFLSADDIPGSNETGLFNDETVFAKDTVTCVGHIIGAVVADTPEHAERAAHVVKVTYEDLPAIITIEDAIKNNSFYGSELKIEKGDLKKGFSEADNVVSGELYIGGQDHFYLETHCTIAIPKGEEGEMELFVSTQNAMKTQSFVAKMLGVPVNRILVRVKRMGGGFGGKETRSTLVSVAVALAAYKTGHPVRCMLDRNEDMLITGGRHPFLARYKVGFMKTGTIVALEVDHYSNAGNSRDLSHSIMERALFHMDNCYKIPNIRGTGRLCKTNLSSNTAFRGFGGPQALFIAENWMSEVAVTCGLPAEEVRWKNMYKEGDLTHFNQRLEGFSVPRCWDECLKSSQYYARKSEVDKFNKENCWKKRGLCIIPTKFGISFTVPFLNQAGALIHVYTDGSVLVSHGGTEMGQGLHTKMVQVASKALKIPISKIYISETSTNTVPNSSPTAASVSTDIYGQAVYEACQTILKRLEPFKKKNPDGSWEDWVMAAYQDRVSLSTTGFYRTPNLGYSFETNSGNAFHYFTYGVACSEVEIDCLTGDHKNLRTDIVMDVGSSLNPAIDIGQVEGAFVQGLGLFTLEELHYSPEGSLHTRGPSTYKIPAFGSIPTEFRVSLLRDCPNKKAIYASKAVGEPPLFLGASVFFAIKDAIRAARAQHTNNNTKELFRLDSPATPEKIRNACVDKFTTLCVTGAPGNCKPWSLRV
For the compound `COC(=O)C1=COC(OC(=O)Nc2cccc(C)c2)[C@@H]2C(COC(=O)Nc3cccc(C)c3)=CC[C@H]12` (stereo partly specified), the 50% inhibitory concentration (IC50) was 140 µM.

On to `CC(=O)OCC1=CC[C@@H]2C(C(=O)SCc3ccccc3)=CO[C@@H](O[C@@H]3O[C@H](COC(C)=O)[C@@H](OC(C)=O)[C@H](OC(C)=O)[C@H]3OC(C)=O)[C@H]12`, for which the IC50 was determined as 181 µM.

Turning to `CCCC(=O)OCC1=CC[C@@H]2C(C(=O)O)=CO[C@@H](O[C@@H]3O[C@H](COC(=O)CCC)[C@@H](OC(=O)CCC)[C@H](OC(=O)CCC)[C@H]3OC(=O)CCC)[C@H]12`, the IC50 was found to be 55.7 µM.

For `CC(=O)OCC1=CC[C@@H]2C(C(=O)NCCC#N)=CO[C@@H](O[C@@H]3O[C@H](COC(C)=O)[C@@H](OC(C)=O)[C@H](OC(C)=O)[C@H]3OC(C)=O)[C@H]12`, the IC50 was determined as 15.8 µM.

For the compound `CC(=O)OCC1=CC[C@@H]2C(C(=O)NCc3ccncc3)=CO[C@@H](O[C@@H]3O[C@H](COC(C)=O)[C@@H](OC(C)=O)[C@H](OC(C)=O)[C@H]3OC(C)=O)[C@H]12`, the IC50 is 36.6 µM.

Take `CCC(=O)OCC1=CC[C@@H]2C(C(=O)O)=CO[C@@H](O[C@@H]3O[C@H](COC(=O)CC)[C@@H](OC(=O)CC)[C@H](OC(=O)CC)[C@H]3OC(=O)CC)[C@H]12`: the IC50 amounted to 48.8 µM.

Turning to `CC(C)CC(=O)OCC1=CC[C@@H]2C(C(=O)O)=CO[C@@H](O[C@@H]3O[C@H](COC(=O)CC(C)C)[C@@H](OC(=O)CC(C)C)[C@H](OC(=O)CC(C)C)[C@H]3OC(=O)CC(C)C)[C@H]12`, the half-inhibitory concentration (IC50) was found to be 69.7 µM.

As for `CC(=O)OCC1=CC[C@@H]2C(C(=O)Nc3cccc(F)c3)=CO[C@@H](O[C@@H]3O[C@H](COC(C)=O)[C@@H](OC(C)=O)[C@H](OC(C)=O)[C@H]3OC(C)=O)[C@H]12`, the IC50 was determined as 28.8 µM.

For `CC(=O)OCC1=CC[C@@H]2C(C(=O)SC3=NCCS3)=CO[C@@H](O[C@@H]3O[C@H](COC(C)=O)[C@@H](OC(C)=O)[C@H](OC(C)=O)[C@H]3OC(C)=O)[C@H]12`, the IC50 was determined as 12.6 µM.

Consider `COC(=O)C1=CO[C@@H](O[C@@H]2O[C@H](CO)[C@@H](O)[C@H](O)[C@H]2O)[C@H]2[C@@H]1CC1OC12CO` (stereo partly specified), for which the IC50 was 165 µM.

For `CC(=O)OCC1=CC[C@@H]2C(C(=O)Nn3ncc4ccccc43)=CO[C@@H](O[C@@H]3O[C@H](COC(C)=O)[C@@H](OC(C)=O)[C@H](OC(C)=O)[C@H]3OC(C)=O)[C@H]12`, the IC50 was 22.8 µM.

In the case of `COC(=O)C1=COC(OC(=O)NC2CCCCC2)[C@@H]2C(COC(=O)NC3CCCCC3)=CC[C@H]12` (stereo partly specified), the 50% inhibitory concentration (IC50) was found to be 281 µM.

As to `COC(=O)C1=COC(OC(=O)NCCCCl)[C@@H]2C(COC(=O)NCCCCl)=CC[C@H]12` (stereo partly specified), the IC50 is 48.8 µM.

With `CC(=O)OCC1=CC[C@@H]2C(C(=O)Nc3cccc4[nH]ccc34)=CO[C@@H](O[C@@H]3O[C@H](COC(C)=O)[C@@H](OC(C)=O)[C@H](OC(C)=O)[C@H]3OC(C)=O)[C@H]12`, the IC50 amounted to 17.5 µM.

As for `COC(=O)C1=COC(O)[C@@H]2C(CO)=CC[C@H]12` (stereo partly specified), the concentration for half-maximal inhibition (IC50) was found to be 93.4 µM.

`COC(=O)C1=COC(OC(=O)Nc2ccc(OC)cc2)[C@@H]2C(COC(=O)Nc3ccc(OC)cc3)=CC[C@H]12` (stereo partly specified): the IC50 worked out at 12.8 µM.

With `O=C(O)C1=CO[C@@H](O[C@@H]2O[C@H](CO)[C@@H](O)[C@H](O)[C@H]2O)[C@@H]2C(CO)=CC[C@H]12` [GENIPOSIDIC ACID], the IC50 was found to be 62.2 µM.

Take `CC(=O)OCC1=CC[C@@H]2C(C(=O)Nc3ccc(C(=O)NCC(=O)O)cc3)=CO[C@@H](O[C@@H]3O[C@H](COC(C)=O)[C@@H](OC(C)=O)[C@H](OC(C)=O)[C@H]3OC(C)=O)[C@H]12`: the IC50 was 73.6 µM.

Take `CC(=O)OCC1=CC[C@@H]2C(C(=O)Nc3ccccc3-c3ccccc3)=CO[C@@H](O[C@@H]3O[C@H](COC(C)=O)[C@@H](OC(C)=O)[C@H](OC(C)=O)[C@H]3OC(C)=O)[C@H]12`: the IC50 was found to be 75.5 µM.

On to `CCNC(=O)OCC1=CC[C@@H]2C(C(=O)OC)=COC(OC(=O)NCC)[C@H]12` (stereo partly specified), for which the IC50 came out at 61.2 µM.

As to `COC(=O)C1=COC(OC(=O)Nc2ccccc2Br)[C@@H]2C(COC(=O)Nc3ccccc3Br)=CC[C@H]12` (stereo partly specified), the IC50 was 23.9 µM.
